Test results reported in patent publication US12559487B2, “Crosslinked optically active secondary amine derivative” (Sumitomo Pharma Co., Ltd., priority 2019, dated 2026).
Read-outs that look alike come from different tables or passages of the source.

What was measured:
MV4; 11 cells = assay: Test 1: Test for evaluating the inhibition of cell proliferation; assay type: cell-based; details: for IC50: cultured for 7 days, PrestoBlue cell viability
Procedure: MV4; 11 cells were obtained from American Type Culture Collection (ATCC). The cells were cultured at 37° C. in the presence of 5% CO2 in RPMI 1640 medium containing 10% fetal bovine serum and 1% penicillin/streptomycin.
The cells were plated to a 96-well plate in 2000 cells/well, each test compound was added thereto to adjust the final concentration of DMSO to 0.1% of DMSO, and the cells were cultured for 7 days. After the cultivation, the cell viability was calculated with PrestoBlue™ Cell Viability Reagent (Invitrogen, A13261).

[1] = biological target: T1, hERG (human Ether-a-go-go Related Gene) (Homo sapiens (Human), UniProt Q12809); assay: Test 2: Test for the hERG inhibition (QPatch HT, CHO cell strain stably expressing hERG); details: for IC50: CHO cells stably expressing hERG, QPatch HT; for hERG/MV4; 11: hERG IC50 divided by MV4, 11 proliferation IC50; for gap between concentration inhibiting 50% of MV4; 11 proliferation and concentration inhibiting 50% of hERG current: hERG IC50 vs MV4, 11 IC50
[2] = biological target: T1, hERG (human Ether-a-go-go Related Gene)
[3] = read-out: hERG IC50, hERG current

T1 sequence (Q12809 whole entry): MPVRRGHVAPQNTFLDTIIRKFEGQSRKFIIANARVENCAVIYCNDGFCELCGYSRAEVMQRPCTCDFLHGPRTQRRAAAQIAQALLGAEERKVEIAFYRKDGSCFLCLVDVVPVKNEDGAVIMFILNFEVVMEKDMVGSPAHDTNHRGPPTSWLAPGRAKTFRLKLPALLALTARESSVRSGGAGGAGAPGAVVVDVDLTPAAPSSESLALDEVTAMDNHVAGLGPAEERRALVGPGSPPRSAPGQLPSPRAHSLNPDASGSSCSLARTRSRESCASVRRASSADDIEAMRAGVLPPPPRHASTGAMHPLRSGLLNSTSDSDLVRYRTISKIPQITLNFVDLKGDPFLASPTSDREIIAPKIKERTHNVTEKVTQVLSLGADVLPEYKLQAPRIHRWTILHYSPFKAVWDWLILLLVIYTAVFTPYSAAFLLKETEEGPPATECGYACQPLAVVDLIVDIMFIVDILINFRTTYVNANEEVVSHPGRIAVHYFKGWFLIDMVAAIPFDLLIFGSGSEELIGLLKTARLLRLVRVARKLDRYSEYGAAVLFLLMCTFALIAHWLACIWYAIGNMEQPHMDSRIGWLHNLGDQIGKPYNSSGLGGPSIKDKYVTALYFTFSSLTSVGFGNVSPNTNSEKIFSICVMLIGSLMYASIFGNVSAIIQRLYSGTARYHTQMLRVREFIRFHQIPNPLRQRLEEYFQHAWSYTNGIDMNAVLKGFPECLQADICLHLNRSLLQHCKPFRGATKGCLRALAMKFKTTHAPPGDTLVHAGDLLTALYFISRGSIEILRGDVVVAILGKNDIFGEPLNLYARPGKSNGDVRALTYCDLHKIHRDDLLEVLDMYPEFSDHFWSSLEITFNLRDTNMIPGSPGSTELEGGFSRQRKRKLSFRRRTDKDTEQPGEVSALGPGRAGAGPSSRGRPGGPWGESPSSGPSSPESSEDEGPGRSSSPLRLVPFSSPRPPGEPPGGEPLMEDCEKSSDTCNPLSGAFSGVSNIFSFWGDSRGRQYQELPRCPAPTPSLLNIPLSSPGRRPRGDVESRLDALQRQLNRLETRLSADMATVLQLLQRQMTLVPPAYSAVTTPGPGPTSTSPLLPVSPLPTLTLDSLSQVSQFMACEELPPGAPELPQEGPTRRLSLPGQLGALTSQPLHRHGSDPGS

## CC(C)N(C)C(=O)c1cc(F)ccc1-n1cc(C2CCCN(C(=O)[C@H]3N[C@@H]4CC[C@H]3C4)CC2)c2ccncc21 (mixture of isomers) [Example 10, 2-(3-{1-[(1R,3S,4S)-2-azabicyclo[2.2.1]heptane-3-carbonyl]azepan-4-yl}-1H-pyrrolo[2,3-c]pyridin-1-yl)-5-fluoro-N-methyl-N-(propan-2-yl)benzamide]
MV4; 11 cells; Homo sapiens, MV4-11, 168 h
  IC50: 0.089 µM
[1]; hERG IC50, hERG current
  IC50: 55 µM

## 5-fluoro-N-methyl-2-(3-{8-[(1S,3S,4R)-5-methylidene-2-azabicyclo[2.2.2]octane-3-carbonyl]-8-azabicyclo[3.2.1]octan-3-yl}-1H-pyrrolo[2,3-c]pyridin-1-yl)-N-(propan-2-yl)benzamide [Example 21]
MV4; 11 cells
  IC50: 0.43 µM

## 5-fluoro-2-(3-{8-[(1S,3S,4R)-5-methylidene-2-azabicyclo[2.2.2]octane-3-carbonyl]-8-azabicyclo[3.2.1]octan-3-yl}-1H-pyrrolo[2,3-c]pyridin-1-yl)-N,N-di(propan-2-yl)benzamide [Example 23]
MV4; 11 cells
  IC50: 0.28 µM

## CC(C)N(C(=O)c1cc(F)ccc1-n1cc(C2=CC3CCC(C2)N3C(=O)[C@H]2NC3CCC2CC3)c2ccncc21)C(C)C (single isomer, unassigned) [Example 19a]
MV4; 11 cells
  IC50: < 0.03 µM
[1]; hERG IC50, hERG current
  IC50: 6 µM
[1]
  hERG/MV4; 11: >200

## 2-(3-{1-[(3S)-2-azabicyclo[2.2.2]octane-3-carbonyl]piperidin-3-yl}-1H-pyrrolo[2,3-c]pyridin-1-yl)-5-fluoro-N-methyl-N-(propan-2-yl)benzamide [Example 9]
[2]
  hERG/MV4; 11: 22
MV4; 11 cells
  IC50: 1.7 µM

## 2-(3-{1-[(3S)-2-azabicyclo[2.2.2]octane-3-carbonyl]-1,2,3,6-tetrahydropyridin-4-yl}-1H-pyrrolo[2,3-c]pyridin-1-yl)-5-fluoro-N-methyl-N-(propan-2-yl)benzamide [Example 2]
MV4; 11 cells
  IC50: 0.53 µM
[1]
  hERG/MV4; 11: 102
  gap between concentration inhibiting 50% of MV4; 11 proliferation and concentration inhibiting 50% of hERG current: more than 100 fold
[1]; [3]
  IC50: 54 µM

## 5-fluoro-N-methyl-2-(3-{1-[(1S,3S,4R)-5-methylidene-2-azabicyclo[2.2.1]heptane-3-carbonyl]azepan-4-yl}-1H-pyrrolo[2,3-c]pyridin-1-yl)-N-(propan-2-yl)benzamide [Example 13]
[2]
  hERG/MV4; 11: 198
MV4; 11 cells
  IC50: 0.13 µM

## C=C1C[C@@H]2CC[C@H]1[C@@H](C(=O)N1CCCC(c3cn(-c4ccc(F)cc4C(=O)N(C(C)C)C(C)C)c4cnccc34)CCC1)N2 [Example 18, 5-fluoro-2-(3-{1-[(1S,3S,4R)-5-methylidene-2-azabicyclo[2.2.2]octane-3-carbonyl]azocan-5-yl}-1H-pyrrolo[2,3-c]pyridin-1-yl)-N,N-di(propan-2-yl)benzamide]
MV4; 11 cells
  IC50: 0.73 µM

## CC(C)N(C(=O)c1cc(F)ccc1-n1cc(C2=CC3CCC(C2)N3C(=O)[C@H]2NC3CCC2CC3)c2ccncc21)C(C)C (single isomer, unassigned) [Example 19b]
MV4; 11 cells
  IC50: 0.14 µM
[1]; hERG IC50, hERG current
  IC50: 4.5 µM
[1]
  hERG/MV4; 11: 32

## 2-(3-{1-[(3S)-2-azabicyclo[2.2.2]octane-3-carbonyl]azepan-4-yl}-1H-pyrrolo[2,3-c]pyridin-1-yl)-5-fluoro-N-methyl-N-(propan-2-yl)benzamide [Example 11]
[2]
  hERG/MV4; 11: >1287
MV4; 11 cells
  IC50: < 0.03 µM

## 2-(3-{1-[(3S)-2-azabicyclo[2.2.2]octane-3-carbonyl]pyrrolidin-3-yl}-1H-pyrrolo[2,3-c]pyridin-1-yl)-5-fluoro-N,N-di(propan-2-yl)benzamide [Example 8]
[2]
  hERG/MV4; 11: 404
MV4; 11 cells
  IC50: 0.024 µM

## CC(C)N(C)C(=O)c1cc(F)ccc1-n1cc(C2CCCN(C(=O)[C@H]3N[C@@H]4CC[C@H]3C4)CC2)c2ccncc21 (stereo partly drawn) [Example 10, 2-(3-{1-[(1R,3S,4S)-2-azabicyclo[2.2.1]heptane-3-carbonyl]azepan-4-yl}-1H-pyrrolo[2,3-c]pyridin-1-yl)-5-fluoro-N-methyl-N-(propan-2-yl)benzamide]
[1]
  hERG/MV4; 11: 621
  gap between concentration inhibiting 50% of MV4; 11 proliferation and concentration inhibiting 50% of hERG current: more than 100 fold

## 2-[3-({1-[(3S)-2-azabicyclo[2.2.2]octane-3-carbonyl]pyrrolidin-3-yl}methyl)-1H-pyrrolo[2,3-c]pyridin-1-yl]-5-fluoro-N-methyl-N-(propan-2-yl)benzamide [Example 25]
[2]
  hERG/MV4; 11: 334
MV4; 11 cells
  IC50: 0.029 µM

## CC(C)N(C(=O)c1cc(F)ccc1-n1cc(C2=CCCN(C(=O)[C@H]3NC4CCC3CC4)CCC2)c2ccncc21)C(C)C [Example 14, 2-(3-{1-[(3S)-2-azabicyclo[2.2.2]octane-3-carbonyl]-1,2,3,4,7,8-hexahydroazocin-5-yl}-1H-pyrrolo[2,3-c]pyridin-1-yl)-5-fluoro-N,N-di(propan-2-yl)benzamide]
MV4; 11 cells; Homo sapiens, MV4-11, 168 h
  IC50: 2.2 µM
[1]; hERG IC50, hERG current
  IC50: 3.2 µM
[1]
  hERG/MV4; 11: 1.5

## 2-(3-{1-[(3S)-2-azabicyclo[2.2.2]octane-3-carbonyl]piperidin-4-yl}-1H-pyrrolo[2,3-c]pyridin-1-yl)-5-fluoro-N-methyl-N-(propan-2-yl)benzamide [Example 4]
MV4; 11 cells
  IC50: 0.073 µM
MV4; 11 cells; summary in words
  cell proliferation inhibition activity: potent cell proliferation inhibition activity
[1]
  hERG/MV4; 11: >1370
  gap between concentration inhibiting 50% of MV4; 11 proliferation and concentration inhibiting 50% of hERG current: more than 100 fold
[1]; [3]
  IC50: > 100 µM
[1]; text prints RS4, 11 cells (table is MV4; 11)
  gap between concentration inhibiting 50% of RS4; 11 proliferation and concentration inhibiting 50% of hERG current: more than 1000 fold

## 2-[3-({4-[(3S)-2-azabicyclo[2.2.2]octane-3-carbonyl]piperazin-1-yl}methyl)-1H-pyrrolo[2,3-c]pyridin-1-yl]-5-fluoro-N-methyl-N-(propan-2-yl)benzamide [Example 28]
[2]
  hERG/MV4; 11: >31
MV4; 11 cells
  IC50: 3.2 µM

## 2-[3-({4-[(3S)-2-azabicyclo[2.2.2]octane-3-carbonyl]-1,4-diazepan-1-yl}methyl)-1H-pyrrolo[2,3-c]pyridin-1-yl]-5-fluoro-N-methyl-N-(propan-2-yl)benzamide [Example 29]
[2]
  hERG/MV4; 11: >34
MV4; 11 cells
  IC50: 2.9 µM

## CC(C)N(C(=O)c1cc(F)ccc1-n1cc(C2CCN(C(=O)[C@H]3NC4CCC3CC4)CC2)c2ccncc21)C(C)C [Example 1, 2-(3-{1-[(3S)-2-Azabicyclo[2.2.2]octane-3-carbonyl]piperidin-4-yl}-1H-pyrrolo[2,3-c]pyridin-1-yl)-5-fluoro-N,N-di(propan-2-yl)benzamide]
MV4; 11 cells; Homo sapiens, MV4-11, 168 h
  IC50: 0.26 µM
[1]; hERG IC50, hERG current
  IC50: 30 µM
[1]
  hERG/MV4; 11: 114
  gap between concentration inhibiting 50% of MV4; 11 proliferation and concentration inhibiting 50% of hERG current: more than 100 fold

## C=C1C[C@@H]2CC[C@H]1[C@@H](C(=O)N1CCCC(c3cn(-c4ccc(F)cc4C(=O)N(C)C(C)C)c4cnccc34)CCC1)N2 [Example 16, 5-fluoro-N-methyl-2-(3-{1-[(1S,3S,4R)-5-methylidene-2-azabicyclo[2.2.2]octane-3-carbonyl]azocan-5-yl}-1H-pyrrolo[2,3-c]pyridin-1-yl)-N-(propan-2-yl)benzamide]
MV4; 11 cells
  IC50: 0.24 µM

## 2-(3-{8-[(3S)-2-azabicyclo[2.2.2]octane-3-carbonyl]-8-azabicyclo[3.2.1]octan-3-yl}-1H-pyrrolo[2,3-c]pyridin-1-yl)-5-fluoro-N-methyl-N-(propan-2-yl)benzamide [Example 20]
[2]
  hERG/MV4; 11: 373
MV4; 11 cells
  IC50: 0.085 µM

## 5-fluoro-2-(3-{1-[(1S,3S,4R)-5-methylidene-2-azabicyclo[2.2.2]octane-3-carbonyl]piperidin-4-yl}-1H-pyrrolo[2,3-c]pyridin-1-yl)-N,N-di(propan-2-yl)benzamide [Example 5]
[2]
  hERG/MV4; 11: 589
MV4; 11 cells
  IC50: 0.035 µM

## 2-(3-{1-[(3S)-2-azabicyclo[2.2.2]octane-3-carbonyl]pyrrolidin-3-yl}-1H-pyrrolo[2,3-c]pyridin-1-yl)-5-fluoro-N-methyl-N-(propan-2-yl)benzamide [Example 7]
[2]
  hERG/MV4; 11: 775
MV4; 11 cells
  IC50: 0.052 µM

## 2-(3-{1-[(1S,3S,4R,6S)-6-(cyclopropylmethyl)-2-azabicyclo[2.2.2]octane-3-carbonyl]piperidin-4-yl}-1H-pyrrolo[2,3-c]pyridin-1-yl)-5-fluoro-N,N-di(propan-2-yl)benzamide [Example 6]
MV4; 11 cells
  IC50: < 0.003 µM

## 2-(3-{2-[(1R,3S,4S)-2-azabicyclo[2.2.1]heptane-3-carbonyl]-2-azaspiro[3.4]octan-6-yl}-1H-pyrrolo[2,3-c]pyridin-1-yl)-5-fluoro-N-methyl-N-(propan-2-yl)benzamide [Example 24]
MV4; 11 cells
  IC50: 0.058 µM

## 5-fluoro-2-(3-{1-[(1S,3S,4S,5S)-5-fluoro-2-azabicyclo[2.2.2]octane-3-carbonyl]azepan-4-yl}-1H-pyrrolo[2,3-c]pyridin-1-yl)-N-methyl-N-(propan-2-yl)benzamide [Example 12]
[2]
  hERG/MV4; 11: >1050
MV4; 11 cells
  IC50: < 0.03 µM

## (3S)—N-[(1S)-3-(1-{4-fluoro-2-[methyl(propan-2-yl)carbamoyl]phenyl}-1H-pyrrolo[2,3-c]pyridin-3-yl)cyclohexyl]-2-azabicyclo[2.2.2]octane-3-carboxamide [Example 30]
[2]
  hERG/MV4; 11: 13
MV4; 11 cells
  IC50: 0.55 µM

## 2-[3-({1-[(3S)-2-azabicyclo[2.2.2]octane-3-carbonyl]piperidin-4-yl}methyl)-1H-pyrrolo[2,3-c]pyridin-1-yl]-5-fluoro-N-methyl-N-(propan-2-yl)benzamide [Example 27]
[2]
  hERG/MV4; 11: >128
MV4; 11 cells
  IC50: 0.78 µM
